The values that follow come from article PMC12735739, “Bromo Analogues of Active 3,4,5,4′-Tetramethoxy-trans-stilbene (DMU-212)—A New Path of Research to Anticancer Agents” (Molecules, 2025).

Molecules are shown by their SMILES. Values after ≈ are worked out from the molar mass of the structure shown.

For test [1], the system named is pancreas BXPC-3. The arrangement: method as in PMID 15943482. The settings on record: cited from earlier work.
Test [2] has as its system J744.2 mice macrophage-like cells. As to the kind of experiment: MTT cell viability assay, J744.2. The format is cell-based. Conditions: Mus musculus; MTT test, 72 h of action; read-out: IC50, Pseudo-Normal Cell Lines, J744.2 Mice Macrophage-Like Cells. The protocol:
(§1) The MTT cell viability assay was performed according to a previously reported protocol. Briefly, adherent cells were seeded at a density of 5000 cells per 100 µL, and suspension cells at 25,000 cells per 100 µL, in 96-well plates and incubated overnight. Subsequently, test compounds were added in 100 µL of culture medium, followed by incubation for 72 h. After treatment, 20 µL of MTT solution (5 mg/mL, Sigma-Aldrich, Burlington, MA, USA) was added to each well. The resulting formazan crystals were dissolved in DMSO (Sigma-Aldrich, Burlington, MA, USA), and absorbance was recorded using a BioTek ELx800 Absorbance Reader (BioTek Instruments, Inc., Vinooski, VT, USA). IC50 values were calculated by nonlinear regression analysis using GraphPad Prism (version 9.1.1, GraphPad Software, Boston, MA, USA). Experiments were conducted in triplicate. Human leukemia Jurkat T-cells, human glioblastoma U251 cells were kindly provided by Collection at the Institute of Molecular Biology and Genetics, National Academy of Sciences of Ukraine (Kyiv, Ukraine). Murine macrophages of J774.2 line were a generous gift from Prof. Sir John Vane (William Harvey Research Institute, London, UK) provided via Prof. Janusz Marcinkiewicz (Jagiellonian University Medical College, Krakow, Poland). Human colorectal adenocarcinoma cell line HT-29 was kindly provided by Prof. Anna Bielawska (Department of Biotechnology, Faculty of Pharmacy, Medical University of Bialystok, Poland). Murine BALB/3T3 fibroblasts was obtained from the Cell Collection of the R.E. Kavetsky Institute of Experimental Pathology, Oncology and Radiobiology (Kyiv, Ukraine).
For orientation: Tetrazolium dyes change colour on reduction, which living cells bring about.

For test [3], the system named is neuroblast SK-N-SH. Set-up: method as in PMID 15943482. Conditions: cited from earlier work.
In test [4] the test system is HT-29 human colorectal carcinoma. Briefly: MTT cell viability assay, HT-29. The format is cell-based. Conditions: MTT test, 72 h of action, read-out: IC50, Tumour Cell Lines, HT-29 Human Colorectal Carcinoma. The protocol: as §1
Test [5] has as its system Jurkat human acute T-cell leukaemia. As to the kind of experiment: MTT cell viability assay, Jurkat. The format is cell-based. The settings on record: MTT test, 72 h of action, read-out: IC50, Tumour Cell Lines, Jurkat Human Acute T-Cell Leukaemia. The protocol: as §1
In test [6] the test system is prostate DU-145. Set-up: method as in PMID 15943482. Conditions: cited from earlier work.
The subject of test [7] is Balb-3T3 mice fibroblast. Briefly: MTT cell viability assay, Balb-3T3. Type of test: cell-based. The settings on record: Mus musculus, MTT test, 72 h of action, read-out: IC50, Pseudo-Normal Cell Lines, Balb-3T3 Mice Fibroblast. The protocol: as §1
For test [8], the system named is Jurkat cells. As to the kind of experiment: Fluorescent microscopy of Jurkat cells (Hoechst 33342/EtBr staining). The settings on record: 0.5 µM, 24 h. The format is cell-based, human. The protocol:
Jurkat cells were seeded in 24-well plates at a density of 250,000 cells/mL and incubated overnight prior to treatment. Cells were then treated for 24 h with compounds 4, 7, and 8 (0.5 µM) or doxorubicin (0.5 µM) as a positive control. Following treatment, cells were stained with Hoechst 33342 (0.2–0.5 µg/mL; Sigma-Aldrich, USA) and ethidium bromide (EtBr, 1 µg/mL). Fluorescence imaging was performed using a LIM-400 microscope (LABEX INSTRUMENT LIMITED, Ningbo, China) equipped with an MTR3CCD camera. Images were captured and analysed using ImageView software (version 4.11.21522.20221011).

Test [9] concerns U251 human malignant glioblastoma. As to the kind of experiment: MTT cell viability assay, U251. The format is cell-based. The settings on record: U-251, MTT test, 72 h of action, read-out: IC50, Tumour Cell Lines, U251 Human Malignant Glioblastoma. The protocol:
as §1

The test system of test [10] is salmon sperm DNA. Briefly: DNA intercalation assay (methyl green displacement method). The settings on record: 1 and 10 μM. Type of test: binding. The protocol: To investigate the potential mechanisms of cell death induced by the studied derivative, we evaluated apoptosis using the fluorescence microscopy of cells stained with Hoechst-33342 and Ethidium Bromide (EtBr), as well as spectroscopic and DNA/methyl green displacement assays. Methyl green is a cationic dye that binds preferentially to the phosphate backbone of DNA (primarily in the major groove). If a compound (an intercalator or groove-binding agent) is added, it can compete with methyl green for binding to DNA. The higher the percentage of substituted methyl green, the stronger the compound interacts with DNA. Intercalation is the key feature of clinically used antitumor drugs, e.g., doxorubicin (DOX). DOX displaced 41.62–45.52% of methyl green from its complex with DNA (Figure 10). Another intercalator, EtBr, replaced 42.12–47.35% of methyl green from its complex with DNA.
A 485 μL aliquot of salmon sperm DNA (50 μg/mL, Sigma-Aldrich, Burlington, MA, USA) was incubated with 15 μL of methyl green solution (1 mg/mL, Sigma-Aldrich, Burlington, MA, USA) at 37 °C for 1 h. Subsequently, 500 μL of the test compounds, doxorubicin, or ethidium bromide (each at final concentrations of 1 μM and 10 μM) was added to the preformed methyl green–DNA complex. The samples were further incubated at 37 °C for 2 h in the dark. Absorbance was then recorded at 630 nm. GraphPad Prism (version 9.1.1, GraphPad Software, Boston, MA, USA) was used for the results analysis. Experiments were conducted in triplicate. Doxorubicin and ethidium bromide were purchased from Sigma-Aldrich, USA.

The subject of test [11] is lung-NSC NCI-H460. The arrangement: method as in PMID 15943482. Conditions: cited from earlier work.

Broadly, the IC50 is the point on the concentration scale where inhibition reaches its midpoint. With `COc1ccc(/C=C/c2cc(OC)c(OC)c(OC)c2)cc1Br` [Compound 4, 3-bromo-3′,4′,5′,4-tetramethoxy-trans-stilbene], the “GI50 pancreas BXPC-3” value in [1] is 0.34 µg/mL (≈ 0.897 µM). Besides, the half-inhibitory concentration (IC50) is 5.21 µM in test [2]; above 100 µM in [4]; 760 nM in test [5]; 2850 nM in test [7]; above 100 µM in test [9]. For the same compound, the “GI50 neuroblast SK-N-SH” value in test [3] was 0.40 µg/mL (≈ 1.05 µM). In addition, in test [6], the “GI50 prostate DU-145” value was 0.45 µg/mL (≈ 1.19 µM). Further, the “effect on cell morphology and viability (apoptosis, chromatin condensation, DNA fragmentation)” value in [8] is reported as “induced moderate apoptosis”. For the same compound, in [10] (range over both doses), the “percentage of methyl green dye replaced from its complex with DNA” value is reported as 1.87–5.98%. The “affinity for DNA” value in [10] (methyl green displacement, in words) is “low affinity for DNA”. Besides, the “GI50 lung-NSC NCI-H460” value in [11] was 0.36 µg/mL (≈ 0.949 µM).
